# Measured values as given in patent US20130281398A1, “TREATMENT OF DISEASES BY EPIGENETIC REGULATION” (RVX Therapeutics Inc., priority 2012, published 2013).
# Target: T1, Brd4 bromodomain 1 (Homo sapiens, UniProt O60885)
# T1 construct: Illustrative results with the first bromodomain of Brd4; made in house; host or cells: E. coli BL21(DE3)
# Experiment: TR-FRET inhibition of tetra-acetylated histone H4 binding to Brd4 bromodomain 1
# Conditions: tetra-acetylated histone H4 peptide and Brd4 bromodomain 1, 2 hours at room temperature
# Procedure: Proteins were cloned and overexpressed with a N-terminal 6×His tag, then purified by nickel affinity followed by size exclusion chromatography. Briefly, E. coli BL21(DE3) cells were transformed with a recombinant expression vector encoding N-terminally Nickel affinity tagged bromodomains from Brd2, Brd3, Brd4. Cell cultures were incubated at 37° C. with shaking to the appropriate density and induced overnight with IPTG. The supernatant of lysed cells was loaded onto Ni-IDA column for purification. Eluted protein was pooled, concentrated and further purified by size exclusion chromatography. Fractions representing monomeric protein are pooled, concentrated, aliquoted, and frozen at −80° C. for use in subsequent experiments.
# Binding of tetra-acetylated histone H4 and BET bromodomains was confirmed by a Time Resolved Fluorescence Resonance Energy Transfer (TR-FRET) method. N-terminally His-tagged bromodomains (200 nM) and biotinylated tetra-acetylated histone H4 peptide (25-50 nM, Millipore) were incubated in the presence of Europium Cryptate-labeled streptavidin (Cisbio Cat. #610SAKLB) and XL665-labeled monoclonal anti-His antibody (Cisbio Cat. #61 HISXLB) in a white 96 well microtiter plate (Greiner). For inhibition assays, serially diluted test compound was added to these reactions in a 0.2% final concentration of DMSO. Final buffer concentrations were 30 mM HEPES pH 7.4, 30 mM NaCl, 0.3 mM CHAPS, 20 mM phosphate pH 7.0, 320 mM KF, 0.08% BSA). After 2 hours incubation at room temperature, the fluorescence by FRET was measured at 665 and 620 nm by a SynergyH4 plate reader (Biotek). The binding inhibitory activity was shown by a decrease in 665 nm fluorescence relative to 620 nm. IC50 values were determined from a dose response curve.
row,FRET activity (<50 uM),Structure (SMILES)
1,Active,"COc1cc(OC)c2c(=O)[nH]c(-c3cc(C)c(OCCNC=O)c(C)c3)nc2c1 [Example 42, N-(2-(4-(5,7-dimethoxy-4-oxo-3,4-dihydroquinazolin-2-yl) 2,6-dimethylphenoxy)ethyl)formamide]"
2,Active,"COc1cc(OC)c2c(=O)[nH]c(-c3cc(C)c(OCCNC(C)=O)c(C)c3)nc2n1 [Example 31, N-{2-[4-(5,7-dimethoxy-4-oxo-3,4-dihydro-pyrido[2,3-d]pyrimidin-2-yl)-2,6-dimethyl-phenoxy]-ethyl}-acetamide]"
3,Inactive,"COc1cc(OCCOCc2ccccc2)cc2nc(-c3ccc4oc(CO)cc4c3)[nH]c(=O)c12 [Example 21, 7-(2-benzyloxy-ethoxy)-2-(2-hydroxymethyl-benzofuran-5-yl)-5-methoxy-3H-quinazolin-4-one]"
4,Inactive,"COc1cc(OC)c2c(=O)[nH]c(-c3cc(C)c(OCCNCC(F)(F)F)c(C)c3)nc2c1 [Example 34, 2-{3,5-dimethyl-4-[2-(2,2,2-trifluoro-ethylamino)-ethoxy]-phenyl}-5,7-dimethoxy-3H-quinazolin-4-one]"
5,Inactive,"Cc1cc(-c2nc3ccc(Nc4ccccn4)cc3c(=O)[nH]2)cc(C)c1O [Example 9, 2-(4-hydroxy-3,5-dimethyl-phenyl)-6-(pyridin-2-ylamino)-3H-quinazolin-4-one]"
6,Active,"Cc1cc(-c2nc3cc(OCCN(C)C)ccc3c(=O)[nH]2)cc(C)c1O [Example 7, 7-(2-dimethylamino-ethoxy)-2-(4-hydroxy-3,5-dimethylphenyl)-3H-quinazolin-4-one]"
7,Active,"COc1cc(OC)c2c(=O)[nH]c(-c3cc(C)c(OCC(=O)NCc4ccccc4)c(C)c3)nc2c1 [Example 24, N-benzyl-2-[4-(5,7-dimethoxy-4-oxo-3,4-dihydroquinazolin-2-yl)-2,6-dimethylphenoxy]acetamide]"
8,Active,"COc1cc(OCCOCc2ccccc2)cc2nc(-c3cc(C)c(OCCO)c(C)c3)[nH]c(=O)c12 [Example 20, 7-(2-benzyloxy-ethoxy)-2-[4-(2-hydroxy-ethoxy)-3,5-dimethyl-phenyl]-5-methoxy-3H-quinazolin-4-one]"
9,Active,"COc1cc(OC)c2c(=O)[nH]c(-c3cc(C)c(OCCNc4cc(C)on4)c(C)c3)nc2c1 [Example 46, 2-(3,5-dimethyl-4-(2-(5-methylisoxazol-3-ylamino)ethoxy)phenyl)-5,7-dimethoxyquinazolin-4(3H)-one]"
10,Active,"COc1cc(OC)c2c(=O)[nH]c(-c3cc(C)c(OCCNc4ccon4)c(C)c3)nc2c1 [Example 48, 2-(4-(2-(isoxazol-3-ylamino)ethoxy)-3,5-dimethylphenyl)-5,7-dimethoxyquinazolin-4(3H)-one]"
11,Active,"CNC(=O)COc1c(C)cc(-c2nc3cc(OC)cc(OC)c3c(=O)[nH]2)cc1C [Example 22, 2-[4-(5,7-dimethoxy-4-oxo-3,4-dihydro-quinazolin-2-yl)-2,6-dimethyl-phenoxy]-N-methyl-acetamide]"
12,Active,"COc1ccc(NC(=O)COc2c(C)cc(-c3nc4cc(OC)cc(OC)c4c(=O)[nH]3)cc2C)cc1 [Example 23, 2-[4-(5,7-Dimethoxy-4-oxo-3,4-dihydro-quinazolin-2-yl)-2,6-dimethyl-phenoxy]-N-(4-methoxy-phenyl)-acetamide]"
13,Inactive,"COc1cc(OC)c2c(=O)[nH]c(-c3cc(C)c(OCCOCc4ccccc4)c(C)c3)nc2n1 [Example 12, 2-(4-(2-(benzyloxy)ethoxy)-3,5-dimethylphenyl)-5,7-dimethoxypyrido[2,3-d]pyrimidin-4(3H)-one]"
14,Active,"Cc1cc(-c2nc3ccc(CN4CCN(C)CC4)cc3c(=O)[nH]2)cc(C)c1O [Example 10, 2-(4-hydroxy-3,5-dimethylphenyl)-6-((4-methylpiperazin-1-yl)methyl)quinazolin-4(3H)-one]"
15,Active,"COc1cc(OC)c2c(=O)[nH]c(-c3ccc4cc(CCO)[nH]c4c3)nc2c1 [Example 52, 2-[2-(2-hydroxyethyl)-1H-indol-6-yl]-5,7-dimethoxy-3H-quinazolin-4-one]"
16,Active,"COc1cc(OC)c2c(=O)[nH]c(-c3ccc(OCCNC(C)=O)c(C)c3)nc2c1 [Example 39, N-(2-(4-(5,7-dimethoxy-4-oxo-3,4-dihydroquinazolin-2-yl)-2-methylphenoxy)ethyl)acetamide]"

row,FRET activity (<50 uM),Structure (SMILES)
1,Active,"COc1cc(OC)c2c(=O)[nH]c(-c3cc(C)c(CNC(C)=O)c(C)c3)nc2n1 [Example 33, N-[4-(5,7-dimethoxy-4-oxo-3,4-dihydro-pyrido[2,3-d]pyrimidin-2-yl)-2,6-dimethyl-benzyl]-acetamide]"
2,Active,"COCCOc1cc(OC)c2c(=O)[nH]c(-c3cc(C)c(O)c(C)c3)nc2c1 [Example 4, 2-(4-hydroxy-3,5-dimethyl-phenyl)-5-methoxy-7-(2-methoxy-ethoxy)-3H-quinazolin-4-one]"
3,Active,"COc1cc(OC)c2c(=O)[nH]c(-c3cc(C)c(OCC(O)CO)c(C)c3)nc2c1 (centres unmarked) [Example 16, 2-[4-(2,3-Dihydroxy-propoxy)-3,5-dimethyl-phenyl]-5,7-dimethoxy-3H-quinazolin-4-one]"
4,Active,"COc1cc(OCCOCc2cccnc2)cc2nc(-c3cc(C)c(O)c(C)c3)[nH]c(=O)c12 [Example 6, 2-(4-hydroxy-3,5-dimethylphenyl)-5-methoxy-7-[2-(pyridin-3-ylmethoxy)ethoxy]-3H-quinazolin-4-one]"
5,Active,"COc1cc(OC)c2c(=O)[nH]c(-c3ccc(OCCNc4nnc(-c5ccccc5)[nH]4)c(C)c3)nc2c1 [Example 29, 5,7-Dimethoxy-2-{3-methyl-4-[2-(5-phenyl-4H-[1,2,4]triazol-3-ylamino)-ethoxy]-phenyl}-3H-quinazolin-4-one]"
6,Active,"COc1cc(OC)c2c(=O)[nH]c(-c3ccc(CCCO)c(OC)c3)nc2c1 [Example 51, 2-[4-(3-hydroxy-propyl)-3-methoxy-phenyl]-5,7-dimethoxy-3H-quinazolin-4-one]"
7,Inactive,"Cc1cc(-c2nc3cccc(Cl)c3c(=O)[nH]2)cc(C)c1OCCO [Example 27, 5-chloro-2-(4-(2-hydroxyethoxy)-3,5-dimethylphenyl)quinazolin-4(3H)-one]"
8,Active,"Cc1cc(-c2nc3ccc(CNS(C)(=O)=O)cc3c(=O)[nH]2)cc(C)c1O [Example 11, N-((2-(4-hydroxy-3,5-dimethylphenyl)-4-oxo-3,4-dihydroquinazolin-6-yl)methyl)methanesulfonamide]"
9,Active,"COc1cc(OCCN)cc2nc(-c3cc(C)c(O)c(C)c3)[nH]c(=O)c12 [Example 3, 7-(2-amino-ethoxy)-2-(4-hydroxy-3,5-dimethyl-phenyl)-5-methoxy-3H-quinazolin-4-one]"
10,Active,"COc1cc(OC)c2c(=O)[nH]c(-c3cc(C)c(OCCNS(=O)(=O)N(C)C)c(C)c3)nc2c1 [Example 44, N-(2-(4-(5,7-dimethoxy-4-oxo-3,4-dihydroquinazolin-2-yl)-2,6-dimethylphenoxy)ethyl)dimethylamino-N-sulfonamide]"
11,Active,"COc1cc(OC)c2c(=O)[nH]c(-c3cc(OC)c(CCCO)c(OC)c3)nc2c1 [Example 50, 2-[4-(3-hydroxy-propyl)-3,5-dimethoxyphenyl]-5,7-dimethoxy-3H-quinazolin-4-one]"
12,Active,"COc1cc(OC)c2c(=O)[nH]c(-c3cc(C)c(OCCNC#N)c(C)c3)nc2c1 [Example 45, N-(2-(4-(5,7-dimethoxy-4-oxo-3,4-dihydroquinazolin-2-yl) 2,6-dimethylphenoxy)ethyl)cyanamide]"
13,Active,"COc1cc(OC)c2c(=O)[nH]c(-c3cc(C)c(OCCN(C)C)c(C)c3)nc2c1 [Example 40, 2-(4-(2-(dimethylamino)ethoxy)-3,5-dimethylphenyl)-5,7-dimethoxyquinazolin-4(3H)-one]"
14,Active,"COc1cc(OC)c2c(=O)[nH]c(-c3cc(C)c(OCCN(C)C(C)=O)c(C)c3)nc2c1 [Example 41, N-(2-(4-(5,7-dimethoxy-4-oxo-3,4-dihydroquinazolin-2-yl)-2,6-dimethylphenoxy)ethyl)-N-methylacetamide]"
15,Active,"COc1cc(OC)c2c(=O)[nH]c(-c3cc(C)c(OCCNC=O)c(C)c3)cc2c1 [Example 35, N-{2-[4-(6,8-dimethoxy-1-oxo-1,2-dihydro-isoquinolin-3-yl)-2,6-dimethyl-phenoxy]-ethyl}-formamide]"

row,Structure (SMILES),FRET activity (<50 uM)
1,"COc1cc(OC)c2c(=O)[nH]c(-c3cc(C)c(OCCCCO)c(C)c3)nc2c1 [Example 25, 2-[4-(4-hydroxy-butoxy)-3,5-dimethyl-phenyl]-5,7-dimethoxy-3H-quinazolin-4-one]",Active
